Laboratory results from US9580430B2, “9H-pyrimido[4,5-B]indoles and related analogs as BET bromodomain inhibitors” (THE REGENTS OF THE UNIVERSITY OF MICHIGAN, priority 2014, dated 2017).
pIC50, pKi: −log10 of the molar value. Like-named read-outs stand apart in the source and are kept apart here.

Tests used:
MDA-MB-436 = test: Cell growth inhibition, MDA-MB-436 breast cancer cells (WST-8); type: cell-based; conditions: Homo sapiens, 4 days; for pIC50: 96 h, MDA-MB-436 cells, read-out: Cellular data MDA-MB-436 IC50; for IC50: MDA-MB-436, 96 h, read-out: IC50 (nM) MDA-MB-436 Cell Line (WST assay)
How it was run: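 IC50 was computed from WST-8-based cell counting in MDA-MB-436 cells, with absorbance read at 450 nm.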

recombinant BRD4 BD2 = molecular target: T1, recombinant BRD4 BD2 (Homo sapiens, UniProt O60885); test: Competitive fluorescence-polarization (FP) binding assay, BRD4 BD2; conditions: for pIC50 / pKi: FP competitive binding, BRD4 BD2; for pIC50: read-out: Binding affinities (FP) BRD4BD2 IC50; for pKi: read-out: Binding affinities (FP) BRD4BD2 Ki; for IC50: competitive FP assay, protein 6 nM, probe […], read-out: IC50 (nM) BRD4 BD2; as to IC50 (nM) BRD4 BD2: probe 1.5 nM
T1 construct: for recombinant BRD4 BD1 and BRD4 BD2 proteins
How it was run: (§1)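 FP competition with FAM-labelled probe (ZBA248 or BRD-1F) against preincubated protein/probe complex; BD1 at 10 nM and BD2 at 6 nM final, in 100 mM potassium phosphate pH 6.5, 0.01% Triton X-100. 30 min, room temperature. IC50 by nonlinear regression; Ki also derived, using probe Kd from protein saturation.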

LNCaP = test: Cell growth inhibition, LNCaP prostate cancer cells (Cell-Titer GLO); type: cell-based; conditions: Homo sapiens, read-out: Cellular data LNCaP IC50
recombinant BRD4 BD1 = molecular target: T2, recombinant BRD4 BD1 (Homo sapiens, UniProt O60885); test: Competitive fluorescence-polarization (FP) binding assay, BRD4 BD1; conditions: for pIC50 / pKi: FP competitive binding, BRD4 BD1; for pIC50: read-out: Binding affinities (FP) BRD4BD1 IC50; for pKi: read-out: Binding affinities (FP) BRD4BD1 Ki; for IC50: competitive FP assay, protein 10 nM, probe […], read-out: IC50 (nM) BRD4 BD1; as to IC50 (nM) BRD4 BD1: probe 1.5 nM
T2 construct: for recombinant BRD4 BD1 and BRD4 BD2 proteins
How it was run: as §1

MOLM-13 = test: Cell growth inhibition, MOLM-13 leukemia cells (CellTiter-Glo); type: cell-based; conditions: Homo sapiens, MOLM-13, 96 h; 4 days; read-out: IC50 (nM) MOLM-13 Cell Line (CellTiter-Glo assay)
How it was run: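 MOLM-13 leukemia cells treated with compounds; viability read by CellTiter-Glo luminescence after 10-20 min reagent incubation at room temperature. IC50 derived from luminescent signal.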

Row | SMILES | pIC50 (MDA-MB-436) | pIC50 (recombinant BRD4 BD2) | pKi (recombinant BRD4 BD2) | pIC50 (LNCaP) | pIC50 (recombinant BRD4 BD1) | pKi (recombinant BRD4 BD1) | IC50 (MDA-MB-436) [nM] | IC50 (recombinant BRD4 BD2) [nM] | IC50 (recombinant BRD4 BD1) [nM] | IC50 (MOLM-13) [nM]
1 | COc1cc2c(cc1-c1c(C)noc1C)[nH]c1nc(C)nc(Nc3cc(C4CC4)nn3CCN3CCOCC3)c12 [Cpd. No. 284, N-(3-cyclopropyl-1-(2-morpholinoethyl)-1H-pyrazol-5-yl)-7-(3,5-dimethylisoxazol-4-yl)-6-methoxy-2-methyl-9H-pyrimido[4,5-b]indol-4-amine] | 6.57 | 7.97 | 8.59 | 6.98 | 8.00 | 8.52 |  |  |  | 
2 | COc1cc2c(cc1-c1c(C)noc1C)[nH]c1cncc(Nc3cc(C4CC4)nn3C)c12 [Cpd. No. 323, N-(3-Cyclopropyl-1-methyl-1H-pyrazol-5-yl)-7-(3,5-dimethylisoxazol-4-yl)-6-methoxy-9H-pyrido[3,4-b]indol-4-amine] | 7.82 | 8.23 | 8.92 | 7.68 | 7.93 | 8.80 |  |  |  | 
3 | COc1cc2c(cc1-c1c(C)noc1C)[nH]c1nc(C)nc(Nc3cc(C4CC4)nn3C3CC3)c12 [Cpd. No. 152, N-(1,3-Dicyclopropyl-1H-pyrazol-5-yl)-7-(3,5-dimethylisoxazol-4-yl)-6-methoxy-2-methyl-9H-pyrimido[4,5-b]indol-4-amine] |  |  |  |  |  |  | 34 | 5.6 | 10.6 | 19
4 | COc1cc2c(cc1-c1c(C)noc1C)[nH]c1nc(C)nc(Nc3c(F)c(C4CC4)nn3C)c12 [Cpd. No. 249, N-(3-cyclopropyl-4-fluoro-1-methyl-1H-pyrazol-5-yl)-7-(3,5-dimethylisoxazol-4-yl)-6-methoxy-2-methyl-9H-pyrimido[4,5-b]indol-4-amine] |  |  |  |  |  |  | 302 | 99 | 29 | 159
5 | COc1cc2c(cc1-c1c(C)noc1C)[nH]c1nc(C)nc(Nc3ccnn3C(C)C)c12 [Cpd. No. 175, 7-(3,5-dimethylisoxazol-4-yl)-N-(1-isopropyl-1H-pyrazol-5-yl)-6-methoxy-2-methyl-9H-pyrimido[4,5-b]indol-4-amine] |  |  |  |  |  |  | 71 | 6.9 | 28.7 | 40.5
6 | COc1cc2c(cc1-c1c(C)noc1C)[nH]c1nc(C)nc(Oc3cncc(Br)c3)c12 [Cpd. No. 105, 4-(4-(5-bromopyridin-3-yloxy)-6-methoxy-2-methyl-9H-pyrimido[4,5-b]indol-7-yl)-3,5-dimethylisoxazole] |  |  |  |  |  |  | 885 | 868 | > 1000 | 371
7 | COc1cc2c(cc1-c1c(C)noc1C)[nH]c1nc(C)nc(Nc3c(-c4ccccc4)noc3C)c12 [Cpd. No. 98, N-(7-(3,5-dimethylisoxazol-4-yl)-6-methoxy-2-methyl-9H-pyrimido[4,5-b]indol-4-yl)-5-methyl-3-phenylisoxazol-4-amine] |  |  |  |  |  |  | 380 | 13 | 76 | 171
8 | COc1cc2c(cc1-c1c(C)noc1C)[nH]c1nc(C)nc(Nc3c4c(nn3C3CC3)CCC4)c12 [Cpd. No. 148, N-(2-Cyclopropyl-2,4,5,6-tetrahydrocyclopenta[c]pyrazol-3-yl)-7-(3,5-dimethylisoxazol-4-yl)-6-methoxy-2-methyl-9H-pyrimido[4,5-b]indol-4-amine] |  |  |  |  |  |  | 20.4 | 5 | 7.9 | 3.4
9 | COc1cc2c(cc1-c1c(C)noc1C)[nH]c1nc(C)nc(Nc3cncc(C)c3)c12 [Cpd. No. 108, 7-(3,5-dimethylisoxazol-4-yl)-6-methoxy-2-methyl-N-(5-methylpyridin-3-yl)-9H-pyrimido[4,5-b]indol-4-amine] |  |  |  |  |  |  | 181 | 21 | 58 | 19
10 | COc1cc2c(cc1-c1c(C)noc1C)[nH]c1nc(C)nc(Nc3cnn4c3CCC4)c12 [Cpd. No. 134, N-(5,6-Dihydro-4H-pyrrolo[1,2-b]pyrazol-3-yl)-7-(3,5-dimethylisoxazol-4-yl)-6-methoxy-2-methyl-9H-pyrimido[4,5-b]indol-4-amine] |  |  |  |  |  |  | 128 | 30.5 | 40.2 | 32
11 | COc1cc2c(cc1-c1c(C)noc1C)[nH]c1nc(C)nc(Nc3ncnn3C(C)C)c12 [Cpd. No. 29, 7-(3,5-dimethylisoxazol-4-yl)-N-(1-isopropyl-1H-1,2,4-triazol-5-yl)-6-methoxy-2-methyl-9H-pyrimido[4,5-b]indol-4-amine] |  |  |  |  |  |  | 1110 | > 1000 | > 1000 | 82.1
12 | COc1cc2c(cc1-c1c(C)noc1C)[nH]c1nc(C)nc(Nc3nn(C)c4c(F)cccc34)c12 [Cpd. No. 129, 7-(3,5-Dimethylisoxazol-4-yl)-N-(7-fluoro-1-methyl-1H-indazol-3-yl)-6-methoxy-2-methyl-9H-pyrimido[4,5-b]indol-4-amine] |  |  |  |  |  |  | 201 | 202 | 105 | 144

Continued, values first:

Row | pIC50 (MDA-MB-436) | pIC50 (recombinant BRD4 BD2) | pKi (recombinant BRD4 BD2) | pIC50 (LNCaP) | pIC50 (recombinant BRD4 BD1) | pKi (recombinant BRD4 BD1) | IC50 (MDA-MB-436) [nM] | IC50 (recombinant BRD4 BD2) [nM] | IC50 (recombinant BRD4 BD1) [nM] | IC50 (MOLM-13) [nM] | SMILES
13 |  |  |  |  |  |  | 56.2 | 6.5 | 12.1 | 54.1 | COc1cc2c(cc1-c1c(C)noc1C)[nH]c1nc(C)nc(Nc3c(C)cnn3C(C)C)c12 [Cpd. No. 37, 7-(3,5-dimethylisoxazol-4-yl)-N-(1-isopropyl-4-methyl-1H-pyrazol-5-yl)-6-methoxy-2-methyl-9H-pyrimido[4,5-b]indol-4-amine]
14 |  |  |  |  |  |  | 17.5 | 2 | 4.4 | 11.3 | COc1cc2c(cc1-c1c(C)noc1C)[nH]c1nc(C)nc(Nc3c4c(nn3C)CCCC4)c12 [Cpd. No. 125, 7-(3,5-Dimethylisoxazol-4-yl)-6-methoxy-2-methyl-N-(2-methyl-4,5,6,7-tetrahydro-2H-indazol-3-yl)-9H-pyrimido[4,5-b]indol-4-amine]
15 |  |  |  |  |  |  | 118 | 117 | 142 | 108 | COc1cc2c(cc1-c1c(C)noc1C)[nH]c1nc(C)nc(Nc3c(C#N)cnn3C)c12 [Cpd. No. 174, 5-((7-(3,5-dimethylisoxazol-4-yl)-6-methoxy-2-methyl-9H-pyrimido[4,5-b]indol-4-yl)amino)-1-methyl-1H-pyrazole-4-carbonitrile]
16 |  |  |  |  |  |  | 1100 | 564 | 582 | 853 | COc1cc2c(cc1-c1c(C)noc1C)[nH]c1nc(C)nc(NC3CCCC3)c12 [Cpd. No. 113, N-cyclopentyl-7-(3,5-dimethylisoxazol-4-yl)-6-methoxy-2-methyl-9H-pyrimido[4,5-b]indol-4-amine]
17 |  |  |  |  |  |  | 14.2 | 5.4 | 6.8 | 7.2 | COc1cc2c(cc1-c1c(C)noc1C)[nH]c1nc(C)nc(Nc3cc(C4CC4)nn3C(C)C)c12 [Cpd. No. 149, N-(3-Cyclopropyl-1-isopropyl-1H-pyrazol-5-yl)-7-(3,5-dimethylisoxazol-4-yl)-6-methoxy-2-methyl-9H-pyrimido[4,5-b]indol-4-amine]
18 |  |  |  |  |  |  | 155 | 39.4 | 26.5 | 40.9 | COc1cc2c(cc1-c1c(C)noc1C)[nH]c1nc(C)nc(Nc3[nH]ncc3C(C)C)c12 [Cpd. No. 32, 7-(3,5-dimethylisoxazol-4-yl)-N-(4-isopropyl-1H-pyrazol-5-yl)-6-methoxy-2-methyl-9H-pyrimido[4,5-b]indol-4-amine]
19 |  |  |  |  |  |  | 1530 | 79.5 | 153 | 609 | COc1cc2c(cc1-c1c(C)noc1C)[nH]c1nc(C)nc(Nc3cnc(C)n3C)c12 [Cpd. No. 171, N-(1,2-dimethyl-1H-imidazol-5-yl)-7-(3,5-dimethylisoxazol-4-yl)-6-methoxy-2-methyl-9H-pyrimido[4,5-b]indol-4-amine]
20 |  |  |  |  |  |  | 40 | 5.9 | 10.9 | 25.4 | COc1cc2c(cc1-c1c(C)noc1C)[nH]c1nc(C)nc(Nc3cn(C)nc3C3CCC3)c12 [Cpd. No. 200, N-(3-cyclobutyl-1-methyl-1H-pyrazol-4-yl)-7-(3,5-dimethylisoxazol-4-yl)-6-methoxy-2-methyl-9H-pyrimido[4,5-b]indol-4-amine]
21 |  |  |  |  |  |  | 22.9 | 10.2 | 4.4 | 22.2 | COc1cc2c(cc1-c1c(C)noc1C)[nH]c1nc(C)nc(Nc3cn(C)nc3C(C)C)c12 [Cpd. No. 181, 7-(3,5-dimethylisoxazol-4-yl)-N-(3-isopropyl-1-methyl-1H-pyrazol-4-yl)-6-methoxy-2-methyl-9H-pyrimido[4,5-b]indol-4-amine]
22 |  |  |  |  |  |  | 229 | 33 | 92 | 8 | COc1cc2c(cc1-c1c(C)noc1C)[nH]c1nc(C)nc(Nc3ccc(F)c(Cl)c3)c12 [Cpd. No. 107, N-(3-chloro-4-fluorophenyl)-7-(3,5-dimethylisoxazol-4-yl)-6-methoxy-2-methyl-9H-pyrimido[4,5-b]indol-4-amine]
